Measured values from ChEMBL document CHEMBL3507680, “University of Dundee, Gates Library screen for HepG2 cell viability”.

Assay: Human HepG2 cell viability assay in 384 well format
Format: toxicity, cell-based
Set-up: dose 125 nL, time 70.5 hour; concentration not given beside the values
Conditions: HepG2 cells, read-out: Inhibition

| Compound | cytotoxicity at 70.5 h |
| --- | --- |
| COc1ccc(CN(C(=O)C2CCCS2)c2ccncc2)cc1 (stereo unspecified) | -8.12% |
| Cc1nc(C2CCCN2C(=O)CCCn2cccn2)no1 (stereo unspecified) | 3.27% |
| Cc1cnn(C2CCCN(C(=O)c3cc[nH]n3)C2)c1 (stereo unspecified) | -5.43% |
| COC(C)(C)C(=O)N1CCC(c2cc(CN(C)C)n(C)n2)CC1 | -10.8% |
| Cn1cccc1C(=O)N1CCN(CC2CC2)c2ncccc2C1 | 2.74% |
| c1cnnc(N2CCCC(NCc3ccncc3)C2)c1 (stereo unspecified) | -4.07% |
| Cc1ccc(N2CCCC(NCC(=O)NCC3CC3)C2)nn1 (stereo unspecified) | 1.19% |
| Cc1cc(C(=O)N2CC[C@@]3(O)CCN(C(=O)N4CCCC4)C[C@H]3C2)no1 | -4% |
| CC(C)n1cnnc1CNC(=O)c1cnc2ccccc2n1 | -3.77% |
| Cc1ccc(C(=O)N2C[C@H]3CCC[C@@]3(COCC3CCOCC3)C2)o1 | -5.19% |
| Cc1cccnc1CN1CCN(C(=O)c2cnn(C(C)C)c2)CC1 | 15.6% |
| Cc1nc(CN2CCCN(C(=O)c3cccn3C)CC2)cs1 | 1.17% |
| Cc1nc(C)n(CC2CN(CC(=O)Nc3nccs3)CCO2)n1 (stereo unspecified) | -3.11% |
| CC(C)(C)c1nc(CC(=O)NCCC(=O)Nc2ccncc2)cs1 | 5.09% |
| CC(C)Nc1nc(N2CCCC2)nc2c1CCN(S(C)(=O)=O)CC2 | -10.7% |
| CS(=O)(=O)CCNC1CCCN(Cc2noc(C3CC3)n2)C1 (stereo unspecified) | -13.7% |
| Cn1ncc2c1NC(=O)CC2c1ccc(O)cc1 (stereo unspecified) | 7.25% |
| COc1ccc(OC)c(C2CCN(C3CCOCC3)C2)c1 (stereo unspecified) | 6.32% |
| CCN(C)C(=O)c1ncn2c(C3CCN(S(C)(=O)=O)CC3)ccnc12 | -5.47% |
| Cn1ccnc1-c1ccc(NC[C@H]2CCc3ccccc3O2)nn1 | 18% |
| CCC(C)NS(=O)(=O)c1ccc(C(=O)NC2(C#N)CCC2)cc1 (stereo unspecified) | 39.3% |
| c1csc(-c2noc(CCCNC3CCc4ncnn4C3)n2)c1 (stereo unspecified) | -4.28% |
| CN(C)Cc1cncc2c1CCN(CC(=O)N(C)C)C2 | 10.2% |

| Compound | cytotoxicity at 70.5 h |
| --- | --- |
| CC(C)c1noc(OCc2cccc(C#N)c2)n1 | -11.8% |
| COc1ccccc1CNC(C)c1ccc(-n2ccnc2)cc1 (stereo unspecified) | 32.7% |
| CNC(=O)C1CN(c2ncccn2)CCN1Cc1ccccc1 (stereo unspecified) | -3.64% |
| CCN(Cc1nc2c(cnn2C)c(=O)[nH]1)c1cccc(C)c1 | 4.24% |
| O=C(CCc1cc2n(n1)CCCNC2)NCCCSC1CCCCC1 | -8.87% |
| O=S(=O)(NCc1ccccc1)N(Cc1ccccn1)CC1CCCO1 (stereo unspecified) | -2.95% |
| O=C(c1cc(C2CCCCN2CCO)n[nH]1)N1CCOCC1 (stereo unspecified) | -9.24% |
| FC(F)(F)CCc1ncnn1-c1ccc2c(c1)OCO2 | -7.77% |
| O=C(Cc1cn2ccccc2n1)N1CCCC(n2cccn2)C1 (stereo unspecified) | 23.8% |
| O=C1C(CS(=O)(=O)Nc2ccccc2)=NC(=O)n2cccc21 | -7.6% |
| O=C(CSC1CCCC1)N1CCN(c2ccc(-n3cncn3)nn2)CC1 | -2.51% |
| C=C(C)CN1CCC(NC(=O)c2scnc2C)CC1 | -5.87% |
| CC(Cn1ccnc1)NC(=O)NCCN1CCCCCC1=O (stereo unspecified) | -4.74% |
| CC(C)N(C)CC(=O)NCc1ccccc1N1CCN(C)CC1 | 9.3% |
| c1ccc(CN2Cc3ccnn3CC(COCc3cccnc3)C2)nc1 (stereo unspecified) | -9.03% |
| O=C(C1CC1)N1CCCC(C2=Nc3ccccc3S(=O)(=O)N2)C1 (stereo unspecified) | -4.52% |
| CCc1cnc2c(c1Nc1ccc3c(c1)OCO3)c(=O)n(C)c(=O)n2C | -1.57% |
| O=C(c1cc2c(F)cccc2[nH]1)N1CCCCC1Cn1cccn1 (stereo unspecified) | 3.2% |
| O=C(NCCCn1cncn1)NCC(c1ccccc1)N1CCCC1 (stereo unspecified) | 0.00173% |
| CCc1ccsc1C(=O)N(C)CCc1ccncc1 | -1.38% |
| COC(=O)c1cccc(S(=O)(=O)N2CSCC2C(=O)N(C)C2CC2)c1 (stereo unspecified) | 12.1% |
| Cc1ccc2c(c1)CCC21CCN(C(=O)CN(C)C)CC1 | -1.12% |
| CC(C)[C@H]1COC(=O)N1Cc1nncn1C(C)C | -7.29% |
